Reference: US8633208B2, “6-1H-imidazo-quinazoline and quinolines derivatives, new MAO inhibitors and imidazoline receptor ligands” (Rottapharm S.p.A, priority 2008, dated 2014)
pIC50: −log10 of the molar value. Where a name gives a salt, the structure may show the parent alone. Read-outs that look alike come from different tables or passages of the source.

Key:
human recombinant MAO-B = human recombinant MAO-B (Homo sapiens (Human), UniProt P27338); assay: Monoaminooxidase (MAO) activity assay, MAO-Glo luminescent method, MAO-B
human recombinant MAO-B, sequence (P27338 whole entry): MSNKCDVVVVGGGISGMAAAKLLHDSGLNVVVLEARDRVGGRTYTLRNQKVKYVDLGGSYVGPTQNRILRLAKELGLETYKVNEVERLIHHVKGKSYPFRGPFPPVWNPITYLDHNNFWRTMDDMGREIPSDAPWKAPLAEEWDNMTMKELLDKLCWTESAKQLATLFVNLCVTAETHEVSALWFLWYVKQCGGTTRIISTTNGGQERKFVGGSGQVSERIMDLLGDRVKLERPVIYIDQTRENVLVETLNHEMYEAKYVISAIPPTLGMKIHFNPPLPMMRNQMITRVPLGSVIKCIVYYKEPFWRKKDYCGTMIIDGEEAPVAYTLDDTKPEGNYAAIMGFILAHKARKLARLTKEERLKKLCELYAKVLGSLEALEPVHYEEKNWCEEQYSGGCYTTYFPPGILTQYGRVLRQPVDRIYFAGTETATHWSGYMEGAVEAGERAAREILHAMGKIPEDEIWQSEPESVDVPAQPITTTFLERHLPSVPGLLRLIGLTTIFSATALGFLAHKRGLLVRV

I2 Imidazoline Receptor = assay: Binding study towards I2 imidazoline receptor subtype in rat brain ([3H]2-BFI displacement); conditions: read-out: [3H]2-BFI binding IC50; rat whole brain membranes, [3H]-2BFI 2.5x10-9 M, 90 min at 25° C.
Protocol: Binding Study Towards I2 Imidazoline Receptor Subtype in Rat Brain.
Male Wistar rats (240-300 g, Harlan, Italy) were sacrificed by decapitation. Whole brains were immediately removed on ice and homogenised in 10 volumes of buffered sucrose (0.32M in 50 mM Tris-HCl, pH 7.4 at 4° C.) using a motor driven Teflon-glass homogeniser. The homogenate was centrifuged at 1000×g for 10 min at 4° C. The resultant supernatants were pooled and centrifuged at 32000×g for 20 min at 4° C. The supernatants were discarded and each pellet suspended in 10 volumes of assay buffer (50 mM Tris-HCl, 1 mM MgCl2, pH 7.4 at 4° C.) and spun at 32000×g for 20 min at 4° C. The pellets were washed twice by repeated centrifugation at 32000×g for 20 min at 4° C. The final pellets were stored at −80° C. until use. Prior to radioligand binding studies, membrane pellets were thawed and washed a further 4 times by re-suspension in 10 volumes of assay buffer (as above) and repeated centrifugation to remove any possible endogenous inhibitors of binding. […] Non specific binding was determined in the presence of 10^-5 M BU224 (Tocris Bioscience). The incubation, in a final volume of 1 ml, was performed in polystyrene multiwell 24, started adding membranes suspension and was carried out for 90 min at 25° C. With the exception of total binding and non specific binding, all concentration points were performed in duplicate. Compounds were tested in 3-5 different concentrations, ranging from 10^-10 M to 10^-5 M final concentration.

human recombinant MAO-A = human recombinant MAO-A (Homo sapiens (Human), UniProt P21397); assay: Monoaminooxidase (MAO) activity assay, MAO-Glo luminescent method, MAO-A
human recombinant MAO-A, sequence (P21397 whole entry): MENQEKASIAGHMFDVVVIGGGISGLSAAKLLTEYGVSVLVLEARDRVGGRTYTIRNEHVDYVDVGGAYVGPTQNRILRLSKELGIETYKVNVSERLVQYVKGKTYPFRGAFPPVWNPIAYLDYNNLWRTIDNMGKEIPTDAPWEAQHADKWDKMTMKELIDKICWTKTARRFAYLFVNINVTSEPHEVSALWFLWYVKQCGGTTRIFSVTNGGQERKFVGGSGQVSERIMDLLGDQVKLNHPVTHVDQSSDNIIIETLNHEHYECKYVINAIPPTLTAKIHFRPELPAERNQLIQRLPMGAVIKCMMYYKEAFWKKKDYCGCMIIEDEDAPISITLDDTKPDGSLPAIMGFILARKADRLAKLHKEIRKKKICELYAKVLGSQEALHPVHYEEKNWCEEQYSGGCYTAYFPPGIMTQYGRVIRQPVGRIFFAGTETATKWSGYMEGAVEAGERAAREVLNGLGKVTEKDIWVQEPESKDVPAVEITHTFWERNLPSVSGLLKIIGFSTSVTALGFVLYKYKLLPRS
Protocol: Monoaminooxidase (MAO) Activity Assay.
Inhibitory activity of compounds was evaluated by a homogeneous luminescent method, the MAO-Glo™ Assay (Promega), measuring the monoamine oxidase activity (MAOs) from recombinant source (microsomes from baculovirus infected insect cells, Sigma). Experiments were performed according to the Supplier's procedure, incubating human recombinant MAO-A or MAO-B with a luminogenic substrate, a derivative of beetle luciferin ((4S)-4,5-dihydro-2-(6-hydroxybenzothiazolyl)-4-thiazolecarboxylic acid). […] The MAO-Glo™ Assay was performed in two steps:
Step 1. The MAO reaction: MAO substrate was incubated with MAO-A or MAO-B (1 μg/sample) in the absence (Total activity) or presence (modulated activity) of test compounds. Total activity was determined in the presence the appropriate solvent. […] Reaction started adding the enzyme solution and samples were incubated for 60 min at room temperature. For negative control reaction, samples of MAO reaction buffer (100 mM Hepes, 5% glycerol, pH 7.5) indeed the test compound were included. For MAO-B activity assay, MAO reaction buffer contain 10% DMSO, in order to increase enzymatic activity. Step 2. […] At the end of incubation 50 μl of Luciferin Detection reagent were added to each well, plate was incubated at room temperature for 20 min, then luminescent signal was detected by luminometer (integration time 0.25-1 sec per well). […] Net MAO-dependent luminescence (net RLU) were calculated by subtracting the average luminescence of the negative control reaction without MAO enzyme. A reduction of net signal in the presence of test compound, with respect to total activity, reflect its effect on MAOs activity. […] A percentage of inhibition for each concentration tested were calculated and the IC50 value was estimated by linear regression.

CD1 Mice = assay: Tail suspension test in mice; type: in vivo; conditions: Table 3; for MPE (% inhibition in immobility time): 30 min before the test
Protocol: Tail Suspension Test in Mice
To evaluate novel antidepressants compounds several animal models have been developed. […] The antidepressant effect of representative examples of compounds of formula (I) has been evaluated according to the procedure below. The immobility was induced according to the procedure of Stem et al. (1985). CD1 Mice (Harlan, Italy) were individually suspended 75 cm above the top with an adhesive tape placed 1 cm from the tip of the tail. Immobility duration was recorded for 5 min. Mice were considered immobile only when they hung passively and completely motionless. Compounds were given orally, 30 min before the test at doses ranging between 0.3 and 30 mg/kg. Data collected were expressed as mean percent effect (MPE), which represents the % of inhibition in immobility time between the animals treated with representative compounds of formula (I) and the controls that received only the vehicle.

[1] = read-out: MAO A activity IC50, human recombinant MAO-A, substrate 40 μM, 60 min room temperature

Compound	pIC50 (human recombinant MAO-B)	pIC50 (I2 Imidazoline Receptor)	also measured
c1ccc2c(c1)OCC(C1=NCCN1)O2 (stereo not shown) [Idazoxan, reference compound]	< 6.00	7.96	pIC50 (human recombinant MAO-A): < 6.00
COc1ccc(-c2ccc3cc(-n4ccnc4)ccc3n2)cc1 [Example 18, [6-(1H-imidazol-1-yl)-2-(4-methoxyphenyl)]quinoline dihydrochloride]	< 5.00	5.72	pIC50 (human recombinant MAO-A; [1]): 6.17
N=C(N)NCCCCN [Agmatine, reference compound]	< 4.00	< 5.00	pIC50 (human recombinant MAO-A): < 4.00
C#CCN(C)[C@H](C)Cc1ccccc1 [Deprenyl, reference compound]	–	5.64	–
CS(=O)(=O)c1ccc(-c2ccc3cc(-n4ccnc4)ccc3n2)cc1 [Example 25, [6-(1H-imidazol-1-yl)-2-(4-methanesulfonylphenyl)]quinoline dihydrochloride]	< 5.00	–	MPE (% inhibition in immobility time) (CD1 Mice; dose 3 mg/Kg OS): 23%; MPE (% inhibition in immobility time) (CD1 Mice; dose 10 mg/Kg OS): 54%; MPE (% inhibition in immobility time) (CD1 Mice; dose 30 mg/Kg OS): 40%; ED50 (CD1 Mice; dose yielding 50% reduction of immobility, oral): 8.7 mg/Kg; OS
c1cn(-c2ccc3nc(-c4ccc5occc5c4)ncc3c2)cn1 [Example 14, [6-(1H-imidazol-1-yl)-2-(benzofuran-5-yl)-]quinazoline dihydrochloride trihydrate]	< 5.00	6.21	pIC50 (human recombinant MAO-A; [1]): 6.46
c1ccc2oc(C3=NCCN3)cc2c1 [Example 2-BFI, 2-benzofuranylimidazoline, reference compound]	–	8.15	pIC50 (human recombinant MAO-A; [1]): < 6.00
Cc1cn(-c2ccc3nc(-c4ccc5c(c4)OCO5)ncc3c2)cn1 [Example 9, [6-(4-methyl-1H-imidazol-1-yl)-2-(1,3-benzodioxol-5-yl)]quinazoline]	< 5.00	5.98	pIC50 (human recombinant MAO-A): < 5.00
FC(F)(F)Oc1ccc(-c2ccc3cc(-n4ccnc4)ccc3n2)cc1 [Example 23, [6-(1H-imidazol-1-yl)-2-(4-trifluoromethoxyphenyl)]quinoline dihydrochloride]	< 5.00	6.09	pIC50 (human recombinant MAO-A; [1]): 6.82
COc1ccc(-c2ncc3cc(-n4cnc(C)c4)ccc3n2)cc1 [Example 6, [6-(4-methyl-1H-imidazol-1-yl)-2-(4-methoxyphenyl)]quinazoline]	< 5.00	5.94	pIC50 (human recombinant MAO-A): < 5.00
c1ccc(-c2ccc3cc(-n4ccnc4)ccc3n2)cc1 [Example 17]	–	6.38	pIC50 (human recombinant MAO-B; read-out: MAO B activity IC50): 5.00
COc1ccc(-c2ccc3cc(-n4cnc(C)c4)ccc3n2)cc1 (as salt: hydrochloride) [Example 31, [6-(4-methyl-1H-imidazol-1-yl)-2-(4-methoxyphenyl)]quinoline dihydrochloride]	–	–	melting point: 276 to 278 °C (dec.)
COc1ccccc1-c1ccc2cc(-n3ccnc3)ccc2n1 (as salt: hydrochloride) [Example 19, [6-(1H-imidazol-1-yl)-2-(2-methoxyphenyl)]quinoline dihydrochloride]	–	–	melting point: 251.5 to 252 °C
Cc1nccn1-c1ccc2nc(-c3ccccc3)ccc2c1 (as salt: hydrochloride) [Example 29, [6-(2-methyl-1H imidazol-1-yl)-2-(phenyl)]quinoline dihydrochloride]	–	–	melting point: 296 to 297 °C
Cc1cn(-c2ccc3nc(-c4ccc5c(c4)OCO5)ncc3c2)cn1 (as salt: hydrochloride) [Example 9, [6-(4-methyl-1H-imidazol-1-yl)-2-(1,3-benzodioxol-5-yl)]quinazoline]	–	–	melting point: 215.3 to 218.7 °C
C#CCN(C)CCCOc1ccc(Cl)cc1Cl [Clorgyline, reference compound]	–	5.82	–
Cc1cc(OC(F)(F)F)ccc1-c1ccc2cc(-n3ccnc3)ccc2n1 (as salt: hydrochloride) [Example 24, [6-(1H-imidazol-1-yl)-2-(2-methyl-4-trifluoromethoxyphenyl)]quinoline dihydrochloride]	–	–	melting point: 269.7 to 274.5 °C
